According to PubChem BioAssay AID1963964 (Molecular Pharmacology Branch, DTP, NCI, 2024):
One block for each compound: values may come before it.

Test system: 997726-040-R-J2-PDC tumor spheroids, viability
Assay: Anticancer human tumor 997726-040-R-J2-PDC patient-derived squamous cell lung carcinoma cell line growth inhibition [PI3K]
Settings: spheroids with HUVEC and MSC; for IC50: curve of first compound; for viability, T/C: stronger effect = lower value
Summary of the method: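 Viability of mixed-cell spheroids was determined after exposure to pairwise combinations, one partner being inavolisib, alpelisib, duvelisib or copanlisib. Highest tested concentration matched clinical Cmax where known and 10 microM where not, descending in half-log steps.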
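Also: spheroids exposed to compounds for seven days before readout.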

IC50 (second compound 0.0316 µM): > 10000 nM | IC50 (second compound 0.1 µM): > 10000 nM | IC50 (second compound 0.316 µM): > 10000 nM | IC50 (second compound 1 µM): > 10000 nM | IC50 (second compound 3.16 µM): > 10000 nM | IC50 (second compound 10 µM): > 10000 nM
Structure (SMILES): CNC(=O)c1ccc(N2C(=S)N(c3ccc(C#N)c(C(F)(F)F)c3)C(=O)C2(C)C)cc1F + CC(Nc1ncnc2nc[nH]c12)c1cc2cccc(Cl)c2c(=O)n1-c1ccccc1
viability, T/C (second compound 0.0316 µM, first compound 0.0316 µM): 88.7% | viability, T/C (second compound 0.0316 µM, first compound 0.1 µM): 97.8% | viability, T/C (second compound 0.0316 µM, first compound 0.316 µM): 115% | viability, T/C (second compound 0.0316 µM, first compound 1 µM): 90.4% | viability, T/C (second compound 0.0316 µM, first compound 3.16 µM): 102% | viability, T/C (second compound 0.0316 µM, first compound 10 µM): 86.7% | viability, T/C (second compound 0.1 µM, first compound 0.0316 µM): 98% | viability, T/C (second compound 0.1 µM, first compound 0.1 µM): 93.6% | viability, T/C (second compound 0.1 µM, first compound 0.316 µM): 97% | viability, T/C (second compound 0.1 µM, first compound 1 µM): 107% | viability, T/C (second compound 0.1 µM, first compound 3.16 µM): 104% | viability, T/C (second compound 0.1 µM, first compound 10 µM): 92.4% | viability, T/C (second compound 0.316 µM, first compound 0.0316 µM): 104% | viability, T/C (second compound 0.316 µM, first compound 0.1 µM): 109% | viability, T/C (second compound 0.316 µM, first compound 0.316 µM): 101% | viability, T/C (second compound 0.316 µM, first compound 1 µM): 99.2% | viability, T/C (second compound 0.316 µM, first compound 3.16 µM): 104% | viability, T/C (second compound 0.316 µM, first compound 10 µM): 90.2% | viability, T/C (second compound 1 µM, first compound 0.0316 µM): 96.7% | viability, T/C (second compound 1 µM, first compound 0.1 µM): 86.6% | viability, T/C (second compound 1 µM, first compound 0.316 µM): 78.7% | viability, T/C (second compound 1 µM, first compound 1 µM): 85% | viability, T/C (second compound 1 µM, first compound 3.16 µM): 89% | viability, T/C (second compound 1 µM, first compound 10 µM): 86.9% | viability, T/C (second compound 3.16 µM, first compound 0.0316 µM): 71% | viability, T/C (second compound 3.16 µM, first compound 0.1 µM): 73.8% | viability, T/C (second compound 3.16 µM, first compound 0.316 µM): 72.6% | viability, T/C (second compound 3.16 µM, first compound 1 µM): 80% | viability, T/C (second compound 3.16 µM, first compound 3.16 µM): 80.3% | viability, T/C (second compound 3.16 µM, first compound 10 µM): 66.2% | viability, T/C (second compound 10 µM, first compound 0.0316 µM): 59.5% | viability, T/C (second compound 10 µM, first compound 0.1 µM): 53.9% | viability, T/C (second compound 10 µM, first compound 0.316 µM): 50.6% | viability, T/C (second compound 10 µM, first compound 1 µM): 48% | viability, T/C (second compound 10 µM, first compound 3.16 µM): 54.4% | viability, T/C (second compound 10 µM, first compound 10 µM): 50%

IC50 (second compound 0.0316 µM): 553 nM | IC50 (second compound 0.1 µM): 467 nM | IC50 (second compound 0.316 µM): 319 nM | IC50 (second compound 1 µM): 574 nM | IC50 (second compound 3.16 µM): 60.1 nM | IC50 (second compound 10 µM): < 9.49 nM
Structure (SMILES): Cn1cnc2c(F)c(Nc3ccc(Br)cc3Cl)c(C(=O)NOCCO)cc21 + CC(Nc1ncnc2nc[nH]c12)c1cc2cccc(Cl)c2c(=O)n1-c1ccccc1
viability, T/C (second compound 0.0316 µM, first compound 0.00949 µM): 66.7% | viability, T/C (second compound 0.0316 µM, first compound 0.03 µM): 64.8% | viability, T/C (second compound 0.0316 µM, first compound 0.0949 µM): 55.7% | viability, T/C (second compound 0.0316 µM, first compound 0.3 µM): 54.2% | viability, T/C (second compound 0.0316 µM, first compound 0.949 µM): 45.7% | viability, T/C (second compound 0.0316 µM, first compound 3 µM): 44.4% | viability, T/C (second compound 0.1 µM, first compound 0.00949 µM): 84.3% | viability, T/C (second compound 0.1 µM, first compound 0.03 µM): 68.9% | viability, T/C (second compound 0.1 µM, first compound 0.0949 µM): 55.1% | viability, T/C (second compound 0.1 µM, first compound 0.3 µM): 54.9% | viability, T/C (second compound 0.1 µM, first compound 0.949 µM): 49.8% | viability, T/C (second compound 0.1 µM, first compound 3 µM): 41.5% | viability, T/C (second compound 0.316 µM, first compound 0.00949 µM): 71.5% | viability, T/C (second compound 0.316 µM, first compound 0.03 µM): 62.2% | viability, T/C (second compound 0.316 µM, first compound 0.0949 µM): 54.1% | viability, T/C (second compound 0.316 µM, first compound 0.3 µM): 51.1% | viability, T/C (second compound 0.316 µM, first compound 0.949 µM): 49.1% | viability, T/C (second compound 0.316 µM, first compound 3 µM): 40.5% | viability, T/C (second compound 1 µM, first compound 0.00949 µM): 72% | viability, T/C (second compound 1 µM, first compound 0.03 µM): 70.1% | viability, T/C (second compound 1 µM, first compound 0.0949 µM): 51.5% | viability, T/C (second compound 1 µM, first compound 0.3 µM): 55.8% | viability, T/C (second compound 1 µM, first compound 0.949 µM): 49.9% | viability, T/C (second compound 1 µM, first compound 3 µM): 42.4% | viability, T/C (second compound 3.16 µM, first compound 0.00949 µM): 56.8% | viability, T/C (second compound 3.16 µM, first compound 0.03 µM): 56% | viability, T/C (second compound 3.16 µM, first compound 0.0949 µM): 46.3% | viability, T/C (second compound 3.16 µM, first compound 0.3 µM): 42.4% | viability, T/C (second compound 3.16 µM, first compound 0.949 µM): 40.7% | viability, T/C (second compound 3.16 µM, first compound 3 µM): 35.2% | viability, T/C (second compound 10 µM, first compound 0.00949 µM): 46.1% | viability, T/C (second compound 10 µM, first compound 0.03 µM): 38.5% | viability, T/C (second compound 10 µM, first compound 0.0949 µM): 32.6% | viability, T/C (second compound 10 µM, first compound 0.3 µM): 30.7% | viability, T/C (second compound 10 µM, first compound 0.949 µM): 32.6% | viability, T/C (second compound 10 µM, first compound 3 µM): 24.7%
